Data from US4556668A, “Ethylenediamine derivatives of aryloxypropanolamine aryl esters having various medicinal properties” (American Hospital Supply Corporation, priority 1983, dated 1985).

Tests used:
guinea pig right atria [1] = biological target: T1, guinea pig right atria (Cavia porcellus, UniProt H0W3H1); assay: Beta blocking activity in vitro, guinea pig right atria (isoproterenol-induced rate change); settings: guinea pig right atria, vs isoproterenol, 60-minute incubation; read-out: pA2 value in the atria (converted)
T1 construct: from tissue; host or cells: guinea pig right atria (isolated, spontaneously beating)
T1 sequence (H0W3H1 1-470): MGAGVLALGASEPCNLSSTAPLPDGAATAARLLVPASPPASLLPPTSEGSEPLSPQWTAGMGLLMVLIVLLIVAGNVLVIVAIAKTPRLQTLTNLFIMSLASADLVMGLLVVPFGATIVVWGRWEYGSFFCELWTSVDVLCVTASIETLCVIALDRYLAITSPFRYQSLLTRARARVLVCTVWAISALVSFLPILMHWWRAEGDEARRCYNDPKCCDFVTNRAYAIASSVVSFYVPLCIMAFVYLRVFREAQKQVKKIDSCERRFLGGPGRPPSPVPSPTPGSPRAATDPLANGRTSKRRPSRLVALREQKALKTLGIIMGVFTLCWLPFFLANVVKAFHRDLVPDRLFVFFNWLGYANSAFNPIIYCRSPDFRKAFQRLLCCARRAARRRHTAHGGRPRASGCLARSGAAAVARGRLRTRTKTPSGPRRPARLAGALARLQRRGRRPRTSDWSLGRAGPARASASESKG
Protocol: (§1) Compounds of the present invention are tested for β-blocking activity in vitro using guinea pig right atria and guinea pig tracheal strips mounted in a tissue bath containing oxygenated (95% O2 -5% CO2) Krebs physiological salt solution at 37° C. Each tissue is suspended between a fixed glass rod and a Statham Universal Transducer connected to a Beckman recorder. Atria were allowed to beat spontaneously under a loading tension of approximately 0.5 gm. Intrinsic depressant or stimulant activity is determined for each compound by progressively increasing concentrations in the tissue baths at 60-minute intervals. Tissues are not washed between increments. The maximum concentration showing little or no cardiodepressant activity is chosen for blockade experiments. Changes in rate in response to isoproterenol, a standard β-receptor agonist, is measured in the absence and presence of test compounds. Spiral strips of guinea pig trachea are suspended under 5 gm resting tension and incubated with phentolamine, tropolone and cocaine. Active tension is generated by addition of carbachol (3.0×10^-7 M) and decreases in tension in response to isoproterenol are quantitated. Cumulative concentration-response curves are produced with isoproterenol both before and after 60-minute incubation of test compounds with atria and trachea. […]

guinea pig right atria [2] = assay: as above; settings: ratio greater than one indicates cardioselectivity
Protocol: as §1

[3] = biological target: T2, guinea pig tracheal strips (Cavia porcellus, UniProt Q8K4Z4); assay: Beta blocking activity in vitro, guinea pig tracheal strips (isoproterenol-induced relaxation); settings: carbachol tension, vs isoproterenol, 60-minute incubation, read-out: pA2 value in the trachea (converted)
T2 construct: from tissue; host or cells: guinea pig tracheal spiral strips
T2 sequence (Q8K4Z4 whole entry): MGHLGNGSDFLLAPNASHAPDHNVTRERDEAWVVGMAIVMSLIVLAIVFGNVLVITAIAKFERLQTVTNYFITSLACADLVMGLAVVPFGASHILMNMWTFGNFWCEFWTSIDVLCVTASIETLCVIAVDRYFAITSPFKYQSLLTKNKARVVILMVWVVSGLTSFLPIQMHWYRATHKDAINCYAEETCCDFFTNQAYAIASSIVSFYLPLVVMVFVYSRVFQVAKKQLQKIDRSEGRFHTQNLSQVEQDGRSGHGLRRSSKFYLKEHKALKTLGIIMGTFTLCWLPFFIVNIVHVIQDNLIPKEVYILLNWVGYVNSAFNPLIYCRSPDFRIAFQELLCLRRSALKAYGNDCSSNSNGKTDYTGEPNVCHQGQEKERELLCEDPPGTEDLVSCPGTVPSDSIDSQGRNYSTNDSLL
Protocol: as §1

[4] = system: β-blockade of isoproterenol heart rate response; assay: Duration of beta-blocking action in vivo, anesthetized dogs; parameters: species or system dog; settings: pentobarbital-anesthetized dogs, after 3-hour infusion, isoproterenol 0.5 μg/kg bolus
Protocol: The duration of β-blockade is determined In vivo using pentobarbital-anesthetized dogs instrumented for measurement of heart rate using a Beckman cardiotachometer triggered electronically by a phasic aortic blood pressure signal. Both vagus nerves are severed in the cervical region and the animals are mechanically ventilated. The experimental design used employs a 3-hour infusion of test compound. Bolus doses of isoproterenol (0.5 μg/kg) are used to assess the degree of β-blockade and recovery from β-blockade after […] of the infusion. The doses are spaced at 10-minute intervals and are given before, during and following the infusion of test compounds. The infusion rate is adjusted so that at the end of the 3-hour infusion period the degree of isoproterenol inhibition averaged about 50% of control. Following termination of blocker infusion, percent recovery from β-blockade is computed and the time associated with 80% recovery estimated.

COC(=O)c1ccccc1OCC(O)CNCCNc1ccc([N+](=O)[O-])cn1 (stereo not shown) [Example I, Methyl 2[2-Hydroxy-3-[2-[2-(5-nitropyridinyl)amino]ethyl]aminopropoxy benzoate] was tested, and the Kb (guinea pig right atria [1]) was 31.6 nM, the “cardioselectivity (ratio KB trachea/KB atria)” value (guinea pig right atria [2]) was 2.5 and the Kb [3] was 79.4 nM. The “in vivo duration of action (time to 80% recovery from β-blockade)” value [4] was 15 ± 6 min.
